The conditions of data set [1]: hydroperoxides, cited from earlier work; for Average HPO: average of lots tested; for High HPO Lot: highest lot; for Low HPO Lot: lowest lot.
A short description of data set [2]: Dissolution studies of Lasofoxifene in organic solvents and surfactants. In kind it is physicochemical. Conditions: visual examination; for Dissolution of Lasofoxifene in various organic solvents and surfactants, 2 mg/ml: Lasofoxifene 2 mg/ml in the labelled solvent/surfactant; for Dissolution of Lasofoxifene in various organic solvents and surfactants, 3 mg/ml: Lasofoxifene 3 mg/ml in the labelled solvent/surfactant; for Dissolution of Lasofoxifene in various organic solvents and surfactants, 6 mg/ml: Lasofoxifene 6 mg/ml in the labelled solvent/surfactant. As for the experimental part:
The solubility of Lasofoxifene was investigated by screening various organic solvents and surfactants in increasing concentrations. The term “formulation” may refer to a pharmaceutical composition comprising […] pharmaceutically acceptable excipients.
First, 1 mg of Lasofoxifene was weighed into Eppendorf vessels and 500 μl of organic solvents and surfactants as listed in Table 20 were added. In cases of insufficient dissolution of the API, samples were treated with ultrasound for 30 min and, if necessary, heated to 50° C. while shaking (300 rpm). Afterwards, samples were examined visually regarding drug dissolution. In case of entire dissolution, the experiment was repeated with increasing drug concentrations until maximum dissolution was achieved. In addition, further organic solvents and surfactants were tested.

Data set [3] is described as follows: Peroxide value of excipients at the opening of the container. The class given is physicochemical. The conditions noted are these: measured after opening the container.
Data set [4] is described as follows: Dissolution studies of Lasofoxifene in organic solvents and surfactants. The class given is physicochemical. The conditions noted are these: Lasofoxifene 1 mg/ml in the labelled solvent/surfactant; visual examination.

A value given as a limit tells only on which side of the number the result lay.

Consider `OC[C@@H](O)[C@@H](O)[C@H](O)[C@H](O)CO` [Mannitol], for which, in data set [1], the “Average HPO” value was <10 nmol/g, the “High HPO Lot” value is <10 nmol/g and the “Low HPO Lot” value was <10 nmol/g.
As to `OC[C@H]1O[C@@H](O[C@H]2[C@H](O)[C@@H](O)C(O)O[C@@H]2CO)[C@H](O)[C@@H](O)[C@H]1O` (stereo partly drawn) [Lactose], in data set [1], the “Average HPO” value was <10 nmol/g, the “High HPO Lot” value is 10 nmol/g and the “Low HPO Lot” value was <10 nmol/g.
As for Tetraglycol [Tetraglycol (TG)], in data set [2], the “Dissolution of Lasofoxifene in various organic solvents and surfactants, 2 mg/ml” value (“Dissolution of Lasofoxifene … 2 mg/ml” below) is “dissolved”; the “Dissolution of Lasofoxifene in various organic solvents and surfactants, 3 mg/ml” value (shortened to “Dissolution of Lasofoxifene … 3 mg/ml”) is given as “partially”; the “Dissolution of Lasofoxifene in various organic solvents and surfactants, 6 mg/ml” value is “not dissolved”. Further, the Peroxide value in data set [3] stood at 1.55 µmol. Moreover, the “Dissolution of Lasofoxifene in various organic solvents and surfactants, 1 mg/ml” value (“Dissolution of Lasofoxifene … 1 mg/ml” for short) in data set [4] was “dissolved”.
Take `CC(O)CO` (stereo not drawn) [Propylene glycol (PG), Propylene glycol]: in data set [2], the “Dissolution of Lasofoxifene … 2 mg/ml” value is “dissolved*”; the “Dissolution of Lasofoxifene … 3 mg/ml” value is “partially”; the “Dissolution of Lasofoxifene in various organic solvents and surfactants, 6 mg/ml” value is “not dissolved”. Besides, the “Dissolution of Lasofoxifene … 1 mg/ml” value in data set [4] is on record as “dissolved”.
With `OC[C@H]1O[C@@](CO)(O[C@H]2O[C@H](CO)[C@@H](O)[C@H](O)[C@H]2O)[C@@H](O)[C@@H]1O` [Sucrose], in data set [1], the “Average HPO” value is <10 nmol/g, the “High HPO Lot” value is 20 nmol/g and the “Low HPO Lot” value was <10 nmol/g.
Regarding `OCC(O)CO` [Glycerol 85%, Glycerol], in data set [2], the “Dissolution of Lasofoxifene … 2 mg/ml” value is recorded as “partially”; the “Dissolution of Lasofoxifene … 3 mg/ml” value is “not dissolved”. Further, the “Dissolution of Lasofoxifene … 1 mg/ml” value in data set [4] is recorded as “dissolved”.
For `CO[C@H]1CO[C@H]2[C@@H]1OC[C@H]2OC` [Isosorbide dimethyl ether (DMI), Isosorbide dimethyl ether] the same measures were “partially”, “not dissolved” and “dissolved*”.
